Each block holds one compound with its values, some of them ahead of it.
Legend:
[1] = Solubility (water, pH, bile/water mixtures); format: physicochemical
[2] = Leaching behavior from feed in water; format: physicochemical
[3] = test system: digestive enzymes from rainbow trout; assay: In vitro digestion tests with digestive enzymes from rainbow trout; format: in vitro ADME, Oncorhynchus mykiss; details: pH 9
Method: (§1) The diketopiperazines were digested in vitro with digestive enzymes from carnivorous rainbow trout and omnivorous mirror carp. For this, the enzymes were removed from the digestive tracts of fishes and shrimps. The enzyme solutions obtained were then added to the diketopiperazines. For better comparability of the digestibility of dipeptides of various species, identical conditions were selected for the in vitro digestion studies (37° C., pH 9).
a) Isolation of the Digestive Enzymes from Rainbow Trout (Oncorhynchus mykiss)
The digestive enzymes were isolated based on the method of EID and MATTY (Aquaculture 1989, 79, 111-119). For this, the intestine was removed from five one-year-old rainbow trout (Oncorhynchus mykiss) and processed as described in Example 11. 56 ml of enzyme solution of the intestinal mucosa was obtained from 5 rainbow trout. The solution was stored in the dark at 4° C.
The in vitro studies were carried out as in Example 11. The conversion was determined as the quotient of the content of methionine or methionylmethionine (Met-Met) and the content of cyclo-Met-Met (see FIG. 3).
The test from Example 12b) was carried out similarly, with the cyclic dipeptides cyclo-D-Met-L-Phe and cyclo-D-Met-L-Lys (see FIGS. 7 and 8).

[4] = Pelletizing and extrusion stability in feed production; format: physicochemical
[5] = Blank without enzyme solution (purely chemical cleavage rate); format: physicochemical; details: no enzyme solution
Method: DD/LL-cyclo-Met-Met was taken up in TRIS/HCl buffer solution and the enzyme solution was added to it. As comparison and for assessing the purely chemical cleavage rate, in each case a blank was prepared without enzyme solution (see Table 1). A sample was taken from time to time and its composition was detected and quantified using a calibrated HPLC. The conversion was determined as the quotient of the content of methionine or methionylmethionine (Met-Met) and the content of DD/LL-cyclo-Met-Met (see FIG. 4). […] [table] The in vitro studies were carried out as in Example 11. The conversion was determined as the quotient of the content of methionine or methionylmethionine (Met-Met) and the content of cyclo-Met-Met (see FIG. 3). […] [table] The in vitro studies were carried out as in Example 11. The conversion was determined as the quotient of the content of methionine or D-Met-L-Thr and the content of cyclo-D-Met-L-Thr (see FIG. 9). […] [table]

Litopenaeus vannamei = details: feeding tests; Forster and Dominy 2006; cited from earlier work
[6] = test system: digestive enzymes from mirror carp; assay: In vitro digestion tests with digestive enzymes from mirror carp; format: in vitro ADME, Cyprinus carpio morpha noblis; details: pH 9
Method: as §1
a) Isolation of the Digestive Enzymes from Mirror Carp (Cyprinus carpio morpha noblis)
The digestive enzymes were isolated based on the method of EID and MATTY (Aquaculture 1989, 79, 111-119). For this, the intestine was removed from six one-year-old mirror carp (Cyprinus carpio morpha noblis), rinsed with water, cut open lengthwise and in each case the intestinal mucosa was scraped off. This was comminuted, together with crushed ice, in a mixer. The resultant suspension was treated with an ultrasonic rod, to disrupt any cells that were still intact. In order to separate the cell constituents and fat, the suspension was centrifuged for 30 minutes at 4° C., the homogenate was decanted off and sterilized with a trace of thimerosal. 49 ml of enzyme solution of the intestinal mucosa was obtained from 6 mirror carp. The solution was stored at 4° C. in the dark.
DD/LL-cyclo-Met-Met was taken up in TRIS/HCl buffer solution and the enzyme solution was added to it. As comparison and for assessing the purely chemical cleavage rate, in each case a blank was prepared without enzyme solution (see Table 1). A sample was taken from time to time and its composition was detected and quantified using a calibrated HPLC. The conversion was determined as the quotient of the content of methionine or methionylmethionine (Met-Met) and the content of DD/LL-cyclo-Met-Met (see FIG. 4).
The test from Example 11b) was carried out similarly, with the cyclic dipeptides cyclo-L-His-L-His and cyclo-D-Met-L-Leu (see FIGS. 5 and 6).

ruminants = details: disclosed in WO00/28835; cited from earlier work
chicken = details: Baker et al. 1982; cited from earlier work

solubility [1]: low solubility | leaching behavior [2]: particularly good leaching behavior | enzymatic cleavage by digestive enzymes of rainbow trout ([3]; in vitro, 37° C.): can be cleaved | pelletizing and extrusion stability [4]: good pelletizing and extrusion stability | conversion in the blank to dipeptide DD/LL/meso-Met-Met or DL-methionine ([5]; TRIS/HCl buffer pH 9.5, 37° C.): hardly any conversion
Compound: CSCCC1NC(=O)C(CCSC)NC1=O (racemic) [DD/LL/meso-cyclo-Met-Met, 3,6-bis[2-(methylthio)ethyl]-2,5-piperazinedione]

Compound: CSCCC(N)C(=O)O (racemic) [DL-methionine]
efficacy relative to L-methionine (Litopenaeus vannamei): same efficacy as L-methionine

reaction in the blank to dipeptide DD/LL-Met-Met or DL-methionine ([5]; TRIS/HCl buffer pH 9.5, bile, 37° C.): hardly any reaction | enzymatic cleavage by digestive enzymes of mirror carp ([6]; in vitro, 37° C.): can be cleaved
Compound: CSCCC1NC(=O)C(CCSC)NC1=O (centres unmarked) [DD/LL-cyclo-Met-Met, 3,6-bis[2-(methylthio)ethyl]-2,5-piperazinedione]

Compound: CSCCC(O)C(=O)OC(C)C (centres unmarked) [HMBi]
biological value (ruminants): at least 50%

Compound: CSCC[C@H]1NC(=O)[C@@H](CCSC)NC1=O [cyclo-D-Met-D-Met]
enzymatic cleavage by digestive enzymes of rainbow trout ([3]; in vitro, 37° C.): can be cleaved | enzymatic cleavage by digestive enzymes of mirror carp ([6]; in vitro, 37° C.): can be cleaved

Compound: CSCC[C@@H]1NC(=O)[C@@H](CCSC)NC1=O [cyclo-D-Met-L-Met]
enzymatic cleavage by digestive enzymes of rainbow trout ([3]; in vitro, 37° C.): can be cleaved | enzymatic cleavage by digestive enzymes of mirror carp ([6]; in vitro, 37° C.): can be cleaved

conversion in the blank to dipeptide D-Met-L-Thr or free amino acids ([5]; TRIS/HCl buffer pH 9.5, 37° C.): hardly any conversion
Compound: CSCC[C@H]1NC(=O)[C@H]([C@@H](C)O)NC1=O [cyclo-D-Met-L-Thr, 3-(R)-[2-(methylthio)ethyl]-6-(S)-(1-(R)-hydroxyethyl)-2,5-piperazinedione]

enzymatic cleavage by digestive enzymes of rainbow trout [3]: can be cleaved | enzymatic cleavage by digestive enzymes of mirror carp [6]: can be cleaved
Compound: CSCC[C@@H]1NC(=O)[C@H](CCSC)NC1=O [cyclo-L-Met-L-Met]

Compound: poly-L-methionine
biological value (chicken): no biological value

Reference: patent US20110295006A1, “CYCLIC DIPEPTIDES AS FEED ADDITIVES” (EVONIK DEGUSSA GMBH, priority 2010, published 2011)
